Patent US11518788B2, “Methods and compositions for treating and preventing viral infection” (priority 2020, dated 2022)

System: SARS-CoV-2 variant D614G
Assay type: cell-based

ACE2-Fc
inhibition of infection by SARS-CoV-2 variant D614G: inhibited infection
